Results published in US10610520B2, “Heterocyclic compound” (Takeda Pharmaceutical Company Limited, priority 2016, dated 2020).

Molecular target: T1, His-hMAGL (recombinant polyhistidine tagged human MAGL protein) (Homo sapiens, UniProt Q99685)
T1 construct: made in house; host or cells: E. coli BL21(DE3)
T1 sequence (Q99685 1-303): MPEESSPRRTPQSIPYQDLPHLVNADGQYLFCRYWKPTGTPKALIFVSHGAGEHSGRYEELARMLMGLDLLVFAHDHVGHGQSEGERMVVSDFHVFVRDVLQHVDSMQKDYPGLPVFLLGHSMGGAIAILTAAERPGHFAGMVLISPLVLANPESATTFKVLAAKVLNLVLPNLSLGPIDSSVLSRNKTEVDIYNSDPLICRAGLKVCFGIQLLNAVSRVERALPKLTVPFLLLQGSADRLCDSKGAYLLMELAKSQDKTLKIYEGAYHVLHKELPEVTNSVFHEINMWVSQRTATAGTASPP
Assay: Measurement of MAGL inhibitory activity (arachidonic acid production from 2-arachidonylglycerol, RapidFire-mass spectrometry)
Type: biochemical
Settings: MAGL inhibitory rate, test compound 10 μM, 60 min preincubation, 2-arachidonylglycerol substrate
Procedure, shortened: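 Arachidonic acid formed was quantified by online solid-phase extraction and triple-quadrupole MS in negative SRM mode against a d8 internal standard. Reaction: recombinant His-hMAGL (7.5 ng/mL, pH 7.5 Tris buffer with Triton X-100 and BSA) plus 2-AG (5 μL of 150 μM stock) for 10 min at room temperature, quenched with 2% formic acid. Percent inhibition corrected for enzyme-free background.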

Row | Structure (SMILES) | inhibition at 10 µM
1 | O=C1CCC2(CCN(C(=O)N3CC(COc4ccc5c(c4)CCCC5)C3)C2)N1 (centres unmarked) [Example 320, 7-((3-((5,6,7,8-tetrahydronaphthalen-2-yloxy)methyl)azetidin-1-yl)carbonyl)-1,7-diazaspiro[4.4]nonan-2-one] | 94%
2 | O=C1CCC2(CN(C(=O)c3ccc(-c4cccc(C(F)(F)F)c4F)cc3)C2)N1 [Example 49, 2-((2′-fluoro-3′-(trifluoromethyl)biphenyl-4-yl)carbonyl)-2,5-diazaspiro[3.4]octan-6-one] | 99%
3 | CC1(C2CCN(C(=O)N3CC4(CCC(=O)N4)C3)CC2)Cc2ccccc2O1 (centres unmarked) [Example 2, 2-((4-(2-methyl-2,3-dihydro-1-benzofuran-2-yl)piperidin-1-yl)carbonyl)-2,5-diazaspiro[3.4]octan-6-one] | 100%
4 | O=C1CCC2(CN(C(=O)c3ccc(-c4ccc5cnsc5c4)cc3)C2)N1 [Example 73, 2-(4-(1,2-benzothiazol-6-yl)benzoyl)-2,5-diazaspiro[3.4]octan-6-one] | 98%
5 | Cc1c(F)ccc(F)c1-c1ccc(C(=O)N2CC3(CCC(=O)N3)C2)cc1 [Example 91, 2-((3′,6′-difluoro-2′-methylbiphenyl-4-yl)carbonyl)-2,5-diazaspiro[3.4]octan-6-one] | 90%
6 | O=C1CCC2(CCN(C(=O)N3CC(COc4ccc(C(F)(F)F)cc4F)C3)C2)N1 (centres unmarked) [Example 319, 7-((3-((2-fluoro-4-(trifluoromethyl)phenoxy)methyl)azetidin-1-yl)carbonyl)-1,7-diazaspiro[4.4]nonan-2-one] | 96%
7 | O=C1COCC2(CN(C(=O)c3sc4cc(C(F)(F)F)ccc4c3Cl)C2)N1 [Example 242, 2-((3-chloro-6-(trifluoromethyl)-1-benzothiophen-2-yl)carbonyl)-8-oxa-2,5-diazaspiro[3.5]nonan-6-one] | 99%
8 | O=C1CCC2(CN(C(=O)N3CCC(Cc4ccc(N5CCCCC5)cc4)CC3)C2)N1 [Example 111, 2-((4-(4-(piperidin-1-yl)benzyl)piperidin-1-yl)carbonyl)-2,5-diazaspiro[3.4]octan-6-one] | 101%
9 | O=C1CCC2(CN(C(=O)c3ccc(-c4cccc(OCC(F)(F)F)c4)cc3)C2)N1 [Example 170, 2-((3′-(2,2,2-trifluoroethoxy)biphenyl-4-yl)carbonyl)-2,5-diazaspiro[3.4]octan-6-one] | 99%
10 | O=C1CCC2(CN(C(=O)c3sc(-c4ccccc4C(F)(F)F)cc3Cl)C2)N1 [Example 180, 2-((3-chloro-5-(2-(trifluoromethyl)phenyl)-2-thienyl)carbonyl)-2,5-diazaspiro[3.4]octan-6-one] | 87%
11 | O=C1CCC2(CN(C(=O)c3sc(-c4cccc(OC(F)(F)F)c4)cc3Cl)C2)N1 [Example 248, 2-((3-chloro-5-(3-(trifluoromethoxy)phenyl)-2-thienyl)carbonyl)-2,5-diazaspiro[3.4]octan-6-one] | 95%
12 | O=C1CCC2(CN(C(=O)c3ccc(-c4cc(F)c(F)c(F)c4)cc3)C2)N1 [Example 68, 2-((3′,4′,5′-trifluorobiphenyl-4-yl)carbonyl)-2,5-diazaspiro[3.4]octan-6-one] | 93%
13 | Cc1cc(C(F)(F)F)ccc1-c1ccc(C(=O)N2CC3(CCC(=O)N3)C2)cc1 [Example 92, 2-((2′-methyl-4′-(trifluoromethyl)biphenyl-4-yl)carbonyl)-2,5-diazaspiro[3.4]octan-6-one] | 96%
14 | O=C1CCC2(CN(C(=O)c3sc(-c4ccc(C5(C(F)(F)F)CC5)cc4)cc3Cl)C2)N1 [Example 247, 2-((3-chloro-5-(4-(1-(trifluoromethyl)cyclopropyl)phenyl)-2-thienyl)carbonyl)-2,5-diazaspiro[3.4]octan-6-one] | 100%
15 | O=C1CCC2(CN(C(=O)c3ccc(-c4ccc5c(c4)CCC5)cc3)C2)N1 [Example 57, 2-(4-(2,3-dihydro-1H-inden-5-yl)benzoyl)-2,5-diazaspiro[3.4]octan-6-one] | 99%
16 | O=C1CCC2(CN(C(=O)N3CC(COc4cc(Br)c(C(F)(F)F)cc4F)C3)C2)N1 [Example 24, 2-((3-((5-bromo-2-fluoro-4-(trifluoromethyl)phenoxy)methyl)azetidin-1-yl)carbonyl)-2,5-diazaspiro[3.4]octan-6-one] | 103%
17 | O=C1CCC2(CN(C(=O)c3ccc(-c4ccc(C(F)(F)F)cc4)cc3)C2)N1 [Example 40, 2-((4′-(trifluoromethyl)biphenyl-4-yl)carbonyl)-2,5-diazaspiro[3.4]octan-6-one] | 98%
18 | O=C1CCC2(CN(C(=O)c3sc4cc(-c5ccc(F)cc5)ccc4c3Cl)C2)N1 [Example 36, 2-((3-chloro-6-(4-fluorophenyl)-1-benzothiophen-2-yl)carbonyl)-2,5-diazaspiro[3.4]octan-6-one] | 99%
19 | Cc1c(F)cccc1-c1ccc2c(Cl)c(C(=O)N3CC4(CCC(=O)N4)C3)sc2c1 [Example 204, 2-((3-chloro-6-(3-fluoro-2-methylphenyl)-1-benzothiophen-2-yl)carbonyl)-2,5-diazaspiro[3.4]octan-6-one] | 100%
20 | O=C1CCC2(CN(C(=O)c3sc4cc(-c5cccc(F)c5F)ccc4c3Cl)C2)N1 [Example 215, 2-((3-chloro-6-(2,3-difluorophenyl)-1-benzothiophen-2-yl)carbonyl)-2,5-diazaspiro[3.4]octan-6-one] | 99%

More lines, now with the values ahead:

Row | inhibition at 10 µM | Structure (SMILES)
21 | 100% | Cc1cscc1-c1ccc2c(Cl)c(C(=O)N3CC4(CCC(=O)N4)C3)sc2c1 [Example 236, 2-((3-chloro-6-(4-methyl-3-thienyl)-1-benzothiophen-2-yl)carbonyl)-2,5-diazaspiro[3.4]octan-6-one]
22 | 100% | O=C1NC2(CO1)CN(C(=O)c1sc3ccc(C(F)(F)F)cc3c1C(F)F)C2 [Example 275, 2-((3-(difluoromethyl)-5-(trifluoromethyl)-1-benzothiophen-2-yl)carbonyl)-7-oxa-2,5-diazaspiro[3.4]octan-6-one]
23 | 92% | O=C1CCC2(CN(C(=O)[C@H]3CC[C@H](c4ccc(O)cc4)CC3)C2)N1 [Example 173, 2-((trans-4-(4-hydroxyphenyl)cyclohexyl)carbonyl)-2,5-diazaspiro[3.4]octan-6-one]
24 | 100% | Cc1cc(CO[C@H]2C[C@H](C(=O)N3CC4(COC(=O)N4)C3)C2)ccc1Cl [Example 358, 2-((trans-3-((4-chloro-3-methylbenzyl)oxy)cyclobutyl)carbonyl)-7-oxa-2,5-diazaspiro[3.4]octan-6-one]
25 | 102% | O=C1CCC2(CN(C(=O)N3CCC(Cc4cccc(Cl)c4)CC3)C2)N1 [Example 100, 2-((4-(3-chlorobenzy)lpiperidin-1-yl)carbonyl)-2,5-diazaspiro[3.4]octan-6-one]
26 | 82% | Cc1cc(C)c(-c2ccc(C(=O)N3CC4(CCC(=O)N4)C3)cc2)c(C)c1 [Example 93, 2-((2′,4′,6′-trimethylbiphenyl-4-yl)carbonyl)-2,5-diazaspiro[3.4]octan-6-one]
27 | 99% | O=C1NC2(CCN(C(=O)c3sc4c(F)c(F)cc(Cl)c4c3Cl)C2)CO1 (centres unmarked) [Example 340, 7-((3,4-dichloro-6,7-difluoro-1-benzothiophen-2-yl)carbonyl)-3-oxa-1,7-diazaspiro[4.4]nonan-2-one]
28 | 100% | Cc1ccc(CO[C@H]2C[C@@H](C(=O)N3CC4(COC(=O)N4)C3)C2)cc1Cl [Example 356, 2-((cis-3-((3-chloro-4-methylbenzyl)oxy)cyclobutyl)carbonyl)-7-oxa-2,5-diazaspiro[3.4]octan-6-one]
29 | 98% | O=C1CCC2(CN(C(=O)N3CC(COc4ccc(C(F)(F)F)cc4Cl)C3)C2)N1 [Example 17, 2-((3-((2-chloro-4-(trifluoromethyl)phenoxy)methyl)azetidin-1-yl)carbonyl)-2,5-diazaspiro[3.4]octan-6-one]
30 | 101% | O=C1NC2(CO1)CN(C(=O)c1sc3c(F)ccc(OC(F)F)c3c1Cl)C2 [Example 313, 2-((3-chloro-4-(difluoromethoxy)-7-fluoro-1-benzothiophen-2-yl)carbonyl)-7-oxa-2,5-diazaspiro[3.4]octan-6-one]
31 | 92% | Cc1ccc(C)c(-c2ccc(C(=O)N3CC4(CCC(=O)N4)C3)cc2)c1 [Example 90, 2-((2′,5′-dimethylbiphenyl-4-yl)carbonyl)-2,5-diazaspiro[3.4]octan-6-one]
32 | 101% | O=C1NC2(CO1)CN(C(=O)c1sc3c(Cl)c(OC(F)(F)F)ccc3c1Cl)C2 [Example 290, 2-((3,7-dichloro-6-(trifluoromethoxy)-1-benzothiophen-2-yl)carbonyl)-7-oxa-2,5-diazaspiro[3.4]octan-6-one]
33 | 100% | O=C1NC2(CO1)CN(C(=O)c1sc3cc(Br)ccc3c1Cl)C2 [Example 307, 2-((6-bromo-3-chloro-1-benzothiophen-2-yl)carbonyl)-7-oxa-2,5-diazaspiro[3.4]octan-6-one]
34 | 94% | COc1ccc(-c2ccc(C(=O)N3CC4(CCC(=O)N4)C3)cc2)c(Cl)c1 [Example 85, 2-((2′-chloro-4′-methoxybiphenyl-4-yl)carbonyl)-2,5-diazaspiro[3.4]octan-6-one]
35 | 99% | Cc1cc(F)c(F)c2sc(C(=O)N3CCC4(COC(=O)N4)C3)c(Cl)c12 (centres unmarked) [Example 328, 7-((3-chloro-6,7-difluoro-4-methyl-1-benzothiophen-2-yl)carbonyl)-3-oxa-1,7-diazaspiro[4.4]nonan-2-one]
